Measurements taken from PMC3038857, “Using Nuclear Receptor Activity to Stratify Hepatocarcinogens” (PLoS ONE, 2011).

Columns and labels:
[1] = target: T1, PPARg (PPARG) (Homo sapiens, UniProt P37231); experiment: NVS_NR_hPPARg: Human PPARg Fluorescent Ligand (cell-free HTS); format: binding; settings: scale not given, looks like -log10 of molar active concentration, 0 = no activity
T1 sequence (P37231 1-505): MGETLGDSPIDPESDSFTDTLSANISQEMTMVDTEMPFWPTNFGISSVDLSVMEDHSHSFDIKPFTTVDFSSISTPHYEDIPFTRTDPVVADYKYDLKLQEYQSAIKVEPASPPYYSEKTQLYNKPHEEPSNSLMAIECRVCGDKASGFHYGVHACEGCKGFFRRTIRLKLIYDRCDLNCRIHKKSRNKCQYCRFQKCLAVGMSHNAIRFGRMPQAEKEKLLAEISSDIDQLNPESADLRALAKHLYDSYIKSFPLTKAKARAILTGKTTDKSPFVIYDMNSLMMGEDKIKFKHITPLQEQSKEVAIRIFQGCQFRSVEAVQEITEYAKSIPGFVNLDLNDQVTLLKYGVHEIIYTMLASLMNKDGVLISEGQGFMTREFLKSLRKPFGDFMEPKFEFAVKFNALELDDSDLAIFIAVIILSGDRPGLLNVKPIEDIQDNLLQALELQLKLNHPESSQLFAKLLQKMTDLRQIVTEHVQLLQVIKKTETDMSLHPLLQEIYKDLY
From the text: These are a collection of biochemical assays measuring binding constants and enzyme inhibition values. Chemicals were initially screened at a single concentration in duplicate wells at a concentration of 10 [drawing 63] M for cytochrome P-450 assays and 25 [drawing 64] M for all others. […] These assays were run by Caliper Life Sciences (Hanover, MD) under contract to EPA. Short assay descriptions are available at: http://www.caliperls.com/products/contract-research/in-vitro/.
Cell-free HTS Assays: A collection of biochemical assays measuring binding constants and enzyme inhibition values. […] These assays were run by Caliper Life Sciences (Hanover, MD) under contract to EPA. Short assay descriptions are available at http://www.caliperls.com/products/contract-research/in-vitro/. Values for all endpoints were imported into GeneData Screener (Basel, Switzerland) and normalised to solvent controls from the same plate as the tested compounds and expressed as percent of neutral control. Concentration-response curves were fit in GeneData Screener (Basel, Switzerland) Condeseo module using the Hill equation and AC50 values were determined. […] Detailed description of the methods, data and analysis methods for this dataset are described in a separate publication.

[2] = test system: AR (androgen receptor); experiment: NVS_NR_hAR: Human AR 3H-Methyltrienolone (cell-free HTS); format: binding; settings: scale not given, looks like -log10 of molar active concentration, 0 = no activity
How it was run: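 Responses were normalized to same-plate solvent controls as percent of neutral control. AC50 values came from Hill-equation fits of concentration-response curves.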

[3] = target: T2, RXRa (RXRA) (Homo sapiens, UniProt P19793); experiment: NCGC_RXRa_Agonist: GAL4 BLAM Reporter gene assay: RXRa; format: cell-based; settings: agonist mode; scale not given, looks like -log10 of molar active concentration; 0 = no activity
T2 sequence (P19793 227-462 limits assumed): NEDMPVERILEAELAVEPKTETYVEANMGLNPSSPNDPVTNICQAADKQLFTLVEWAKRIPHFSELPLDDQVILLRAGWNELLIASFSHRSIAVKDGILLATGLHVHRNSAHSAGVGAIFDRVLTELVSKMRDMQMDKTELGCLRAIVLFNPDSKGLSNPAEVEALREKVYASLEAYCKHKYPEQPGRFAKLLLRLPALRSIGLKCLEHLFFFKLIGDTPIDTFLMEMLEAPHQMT
Experimental: (§1) These assays measure binding constants and enzyme inhibition values for nuclear receptors. The targets include [drawing 67] , [drawing 68] , [drawing 69] , [drawing 70] , [drawing 71] , [drawing 72] , [drawing 73] , [drawing 74] , [drawing 75] and [drawing 76] . Each of the nuclear receptor targets was measured in agonist mode. Assays were run at the NIH Chemical Genomics Center (Rockville, MD).
(§2) Cell-based HTS Assays: These assays measuring binding constants and enzyme inhibition values for nuclear receptors. The targets include AR, ER, FXR, LXR, PPARα, PPARδ, PPARγ, RXRα, RXRβ and PXR. Each of the nuclear receptor targets was measured in both agonist and antagonist mode, but the antagonist data is still undergoing analysis due to possible interference between cytotoxicity and assay activity, so antagonist mode data were not used in the present analysis. Assays were run at the NIH Chemical Genomics Center (Rockville, MD) as part of the Tox21 collaboration. […] The R^2 was required to be ≥0.5. Values where only the highest concentration exceeded 50% activity were excluded to eliminate weak or false positives. Detailed description of the methods, data and analysis methods for this dataset will be presented in a separate publication.

[4] = test system: LXR (NR1H3); experiment: ATG_DR4_LXR_CIS: Factorial reporter gene assay (HepG2); format: cell-based, human; set-up: scale not given here; settings: scale not given, looks like -log10 of molar active concentration, 0 = no activity
Experimental: A multiple reporter transcription unit (MRTU) library consisting of 48 transcription factor binding sites was transfected into the HepG2 human liver hepatoma cell line. In addition to the cis-acting reporter genes (CIS), a modification of the approach was used to generate a trans-system (TRANS) with a mammalian one-hybrid assay consisting of an additional 25 MRTU library reporting the activity of nuclear receptor super-family members. […] These assays were performed by Attagene Inc. (Morrisville NC) under contract to EPA.
In addition to the cis-acting reporter genes (CIS), a modification of the approach was used to generate a trans-system (TRANS) with a mammalian one-hybrid assay consisting of an additional 25 MRTU library reporting the activity of nuclear receptor super-family members. […] Chemicals were then tested in the CIS and TRANS assays at seven concentrations starting at the MTC and followed by three-fold serial dilutions. These assays were performed by Attagene Inc. (Morrisville NC) under contract to EPA. Detailed description of the methods, data and analysis methods for this dataset will be presented in a separate publication.

[5] = target: T3, ERa (ESR1) (Homo sapiens, UniProt P03372); experiment: NCGC_ERalpha_Agonist: GAL4 BLAM Reporter gene assay: ERa; format: cell-based; settings: agonist mode; scale not given, looks like -log10 of molar active concentration; 0 = no activity
T3 construct: expressed in transfected cells; host or cells: HEK293
Experimental: as §1, §2

[6] = target: T4, ESR1 (estrogen receptor 1) (Homo sapiens, UniProt P03372); experiment: ATG_ERa_TRANS: Factorial reporter gene assay (HepG2); format: cell-based; settings: HepG2; scale not given, looks like -log10 of molar active concentration; 0 = no activity
T4 construct: expressed in transfected cells; host or cells: HepG2
How it was run: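 HepG2 cells transfected with multiplexed reporter libraries: cis-acting binding-site reporters (CIS) and a one-hybrid nuclear-receptor trans system (TRANS). Chemicals tested at seven concentrations, starting at the maximum tolerated concentration with three-fold serial dilutions.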

[7] = target: T5, PXR Human (NR1I2) (Homo sapiens, UniProt O75469); experiment: NCGC_PXR_Agonist_human: GAL4 BLAM Reporter gene assay: PXR Human; format: cell-based; settings: agonist mode; scale not given, looks like -log10 of molar active concentration; 0 = no activity
T5 sequence (O75469 146-434 limits assumed): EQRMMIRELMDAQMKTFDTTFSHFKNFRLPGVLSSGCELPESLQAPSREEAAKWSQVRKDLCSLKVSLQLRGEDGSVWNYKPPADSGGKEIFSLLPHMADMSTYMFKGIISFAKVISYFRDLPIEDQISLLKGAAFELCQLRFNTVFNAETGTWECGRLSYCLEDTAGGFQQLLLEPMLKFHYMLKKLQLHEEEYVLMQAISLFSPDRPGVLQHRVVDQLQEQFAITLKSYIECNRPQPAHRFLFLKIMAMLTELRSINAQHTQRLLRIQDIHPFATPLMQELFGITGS
How it was run: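 Cell-based GAL4 beta-lactamase reporter assays run at NIH Chemical Genomics Center as part of Tox21. Curve fits required R^2 ≥0.5; values where only the highest concentration exceeded 50% activity were excluded.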

T3 sequence (P03372 whole entry, the tested form may be a part): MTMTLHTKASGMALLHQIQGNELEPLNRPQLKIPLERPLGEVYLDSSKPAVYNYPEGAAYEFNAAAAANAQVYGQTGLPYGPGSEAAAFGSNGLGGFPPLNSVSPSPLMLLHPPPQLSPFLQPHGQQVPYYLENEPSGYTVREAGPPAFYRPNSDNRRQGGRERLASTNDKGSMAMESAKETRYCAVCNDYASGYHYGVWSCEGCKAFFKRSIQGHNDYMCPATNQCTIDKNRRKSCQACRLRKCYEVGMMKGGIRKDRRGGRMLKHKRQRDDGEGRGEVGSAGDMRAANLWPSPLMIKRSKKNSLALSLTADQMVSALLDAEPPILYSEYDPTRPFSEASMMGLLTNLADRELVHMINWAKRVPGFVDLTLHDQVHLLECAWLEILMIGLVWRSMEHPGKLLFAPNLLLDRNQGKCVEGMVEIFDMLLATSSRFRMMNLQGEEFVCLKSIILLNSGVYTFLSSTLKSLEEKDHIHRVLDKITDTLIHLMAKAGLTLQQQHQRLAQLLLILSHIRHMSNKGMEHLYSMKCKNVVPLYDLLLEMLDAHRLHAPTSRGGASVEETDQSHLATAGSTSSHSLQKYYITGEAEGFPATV
T4 sequence (P03372 whole entry): as the sequence (P03372 whole entry, the tested form may be a part) above

| Structure (SMILES) | NVS_NR_hPPARg [1] | NVS_NR_hAR [2] | NCGC_RXRa_Agonist [3] | ATG_DR4_LXR_CIS [4] | NCGC_ERalpha_Agonist [5] | ATG_ERa_TRANS [6] | NCGC_PXR_Agonist_human [7] |
| --- | --- | --- | --- | --- | --- | --- | --- |
| COc1nc(C)nc(NC(=O)NS(=O)(=O)c2ccccc2Cl)n1 [r62] | 0 | 0 | 0 | 0 | 0 | 0 | 0 |
| COC(=O)c1ccccc1CS(=O)(=O)NC(=O)Nc1nc(OC)cc(OC)n1 [r33] | 0 | 0 | 0 | 0 | 0 | 0 | 0 |
| CCC(C)n1c(=O)[nH]c(C)c(Br)c1=O (stereo not drawn) [r43] | 0 | 0 | 0 | 0 | 0 | 0 | 0 |
| COc1ccc(-c2ccccc2)cc1NNC(=O)OC(C)C [r38] | 0 | 0 | 0 | 0 | 0 | 0 | 0 |
| CC(C)N1C(=O)N(c2ccccc2)CS/C1=N\C(C)(C)C [r45] | 0 | 0 | 0 | 0 | 0 | 0 | 4.937 |
| CCC(C)Nc1c([N+](=O)[O-])cc(C(C)(C)C)cc1[N+](=O)[O-] (stereo not drawn) [r48] | 0 | 0 | 0 | 0 | 0 | 4.796 | 4.442 |
| CCOC(=O)C(Cl)Cc1cc(-n2nc(C)n(C(F)F)c2=O)c(F)cc1Cl (stereo not drawn) [r54] | 0 | 0 | 0 | 0 | 0 | 0 | 0 |
| N#Cc1cc(Br)c(O)c(Br)c1 [r44] | 0 | 0 | 4.817 | 0 | 0 | 4.432 | 0 |
| N#Cc1c(Cl)c(Cl)c(Cl)c(C#N)c1Cl [r58] | 6.265 | 0 | 0 | 0 | 0 | 0 | 4.753 |
